Results published in patent US20130252818A1, “AMORPHOUS BIOINORGANIC IONIC LIQUID COMPOSITIONS COMPRISING AGRICULTURAL SUBSTANCES” (priority 2012, published 2013).
Structures can show the parent of a compound that is named as a salt. Where two headings read alike, the source gives them in different places.

Tests used:
[1] = Thermogravimetric analysis (TGA), decomposition temperature; assay type: physicochemical
Method: Melting points of all purchased materials were determined in a capillary tube using a MeI-Temp apparatus (Barnstead/Thermo Scientific). NMR data sets were collected on a 300 MHz Bruker instrument using sample concentrations of 50 mM. Infrared spectra were measured using an Avatar 360 FT-IR ESP (ThermoElectron-Nicolet, Waltham, Mass.) equipped with a Smart DuraSampllR horizontal attenuated total reflectance (HATR) accessory. Raman spectra were measured using a Thermo-Nicolet 470 FTIR with Nd:YAG laser excitation and HgCdTe detector. Viscosity was measured on 1 mL samples with a Viscolab 3000 viscometer (Cambridge Viscosity, Medford, Mass.). Samples were heated to 90° C., except when otherwise specified, and viscosity was recorded in 2 degree increments between 50 and 90° C. with 8 min equilibration at each temperature. Thermal characterization was carried out using a Q100 DSC and a Q500 TGA (both from TA Instruments, New Castle, Del.). DSC was performed using a 5-10 mg sample in a 40 μL aluminum crucible sealed in the glovebox. A temperature range from −60 to 150° C. was scanned twice, at ramp rates of 5° C./min and 10° C./min. TGA was performed under N2 atmosphere over a temperature range from 25-800° C. with a ramp rate of 20° C. per minute and a sample size of 10 mg.

[2] = Storage under Ar, observed over 6 months for crystalline domains; assay type: physicochemical; settings: stored under Ar
[3] = Solubility of the IL in solvents
[4] = system: Pseudomonas aeruginosa biofilms; experiment: Challenge of established biofilms with test compounds, CFU count; assay type: cell-based; settings: 72 h biofilm, 6 h challenge
[5] = system: E. coli; experiment: Biofilm growth on IL-coated culture plates; assay type: cell-based; settings: wells coated with 100 uL IL, 72 h
Method: (§1) A second example of clear, colorless antimicrobial films formed by compositions described herein was shown with an assay that involved coating culture plates with IL and observing the biofilm growth on the coated surface. […] Aliquots of 100 μL of either a Staphylococcus aureus culture, an E. coli culture, or a Pseudomonas aeruginosa culture were added to each coated well, the plate was fed with fresh media every 24 h, and cells were counted after 72 h, as described above. The number of cells in the treated wells was below the limit of detection of the assay of 1000 cfu/mL, as compared with normal cell counts for the LB control wells, indicating high antimicrobial efficacy of the IL coating. Because bacteria colonize a surface prior to barnacles and other organisms, proof of antibacterial effects is key to showing anti-biofouling potential in aquatic environments.

[6] = system: Pseudomonas aeruginosa; experiment: Biofilm growth on IL-coated culture plates; assay type: cell-based; settings: wells coated with 100 uL IL, 72 h
Method: as §1

[7] = system: Staphylococcus aureus; experiment: Biofilm growth on IL-coated culture plates; assay type: cell-based; settings: wells coated with 100 uL IL, 72 h
Method: as §1

[8] = Shelf life estimate by model-free isoconversional kinetic analysis of TGA data; assay type: physicochemical
Method: Zinc(II) chloride (273 mg, 2 mmol) was added to a scintillation vial that had been heated, then cooled under vacuum and charged with dry argon. Phenoxybenzamine hydrochloride (340.3 mg, 1 mmol) was added to the vial with a stir bar and the mixture was degassed with stirring at 60° C. The vial was filled with argon, sealed with a cap, and stirred for 24 h at 80° C. to produce a clear, colorless glass. […] NMR spectra for ^1H and ^13C were obtained in d6-acetone. […] Spectra of phenoxybenzamine-HCl were performed with 0, 0.25, 0.5, 1.0, 1.5, 2.0, and 5.0 molar equivalents of ZnCl2 to observe this effect. Thermal decomposition after a 3 h incubation of the IL at a constant 120° C. was 2.7% of the starting mass. In contrast, the phenoxybenzamine hydrochloride starting material loses 38% of its mass after a similar incubation. The IL was soluble (>1 mM) in acetone, water and phosphate buffered to pH 6.0. The IL was insoluble (<1 mM) in toluene and tetrahydrofuran. […] Model-free isoconversional kinetic analysis (for more detail, see: Doyle, C. D., J. Appl. Polym. Sci. 1962, 6:639-642; and Long, G. T. et al., J. Pharm. Sci. 2002, 91:800-809) of TGA data was used to estimate increases in shelf life due to IL formulation for phenoxybenzamine hydrochloride and phenoxybenzamine-HCl—(ZnCl2)2. The onset of mass loss indicates loss of HCl during cyclization of the 2-chloroethylamine group, the most common decomposition pathway for phenoxybenzamine hydrochloride (for more detail, see: Adams, W. P. et al., Int. J. Pharm. 1985, 25:293-312). Formulation as an ionic liquid improves the shelf life (time to reach 5% decomposition) of solid phenoxybenzamine hydrochloride at 20° C. by 7.7-fold to 15.8 years. […] The manufacturer's shelf life for 10 mg phenoxybenzamine hydrochloride tablets is 2 years, or 730 days, and the calculated value for solid phenoxybenzamine hydrochloride (5% decay at 20° C.) was 750 days (2.05 years), indicating good agreement of the calculation with actual shelf life. The most common decomposition pathway for phenoxybenzamine hydrochloride is loss of hydrochloride during cyclization of the 2-chloroethylamine group (for more detail, see: Adams, W. P. et al., Int. J. Pharm. 1985, 25:293-312) and we expect this is the earliest mass loss observed by TGA. The IL phenoxybenzamine-HCl—(ZnCl2)2 is a stabilized, amorphous formulation with shelf life greater than that of the most common crystalline form.

[9] = Solubility at 1 mM in unbuffered water by eye and UV-Vis after filtration; settings: for A268 of the filtrate: 0.45 μm syringe filter
Method: Solubility of phenoxybenzamine hydrochloride and phenoxybenzamine-HCl—(ZnCl2)2 at 1 mM in unbuffered water (pH 6.5) was evaluated by eye and by UV-Vis spectroscopy after filtration through a 0.45 μm syringe filter.

[10] = assay type: physicochemical; settings: 3 h incubation at constant 120° C.
[11] = TGA under N2, ramp 20° C. per minute
[12] = solid, 20° C., calculated from TGA kinetics
[13] = 1 mM in unbuffered water (pH 6.5)

CNC(=C[N+](=O)[O-])NCCSCc1ccc(CN(C)C)o1.Cl.[Cl][Zn][Cl].[Cl][Zn][Cl]
ΔTdec (increase in decomposition temperature relative to HCl starting material) [1]: +14.1 °C | Appearance of crystalline domains on storage [2]: no crystalline domains appeared | Solubility ([3]; acetone): > 1000 µM

CCCC[N+]1(C)CCCC1.O=S(=O)([N-]S(=O)(=O)C(F)(F)F)C(F)(F)F [BMP-NTf2, 1-butyl-1-methypyrrolidinium bistriflimide]
Cell count remaining in biofilm ([4]; neat): 2×10^5

CC(C)(C)CC(C)(C)c1ccc(OCCOCC[N+](C)(C)Cc2ccccc2)cc1 [Benzethonium-Cl—(ZnCl2)2]
Number of cells in treated wells [5]: < 1000 cfu/mL | Number of cells in treated wells [6]: < 1000 cfu/mL | Number of cells in treated wells [7]: < 1000 cfu/mL

CN1[C@@H]2CC[C@H]1CC(OC(=O)C(O)c1ccccc1)C2 (stereo partly shown) [Homatropine-HCl—(ZnCl2)2]
Tdec (decomposition temperature) [1]: 274.5 °C | ΔTdec (increase in decomposition temperature relative to HCl starting material) [1]: +7.8 °C | Appearance of crystalline domains on storage [2]: no crystalline domains appeared

CN(C)CCCN1c2ccccc2CCc2ccccc21.Cl.[Cl][Zn][Cl].[Cl][Zn][Cl] [Imipramine-HCl—(ZnCl2)2]
ΔTdec (increase in decomposition temperature relative to HCl starting material) [1]: +21.4 °C | Tdec (decomposition temperature) [1, 11]: 267.2 °C | Appearance of crystalline domains on storage [2]: no crystalline domains appeared

[Cl-].[Na+] [NaCl]
Cell count remaining in biofilm ([4]; 5 M in LB): 1×10^6 cells

CC(COc1ccccc1)N(CCCl)Cc1ccccc1.Cl.[Cl][Zn][Cl].[Cl][Zn][Cl] (stereo not shown) [Phenoxybenzamine-HCl—(ZnCl2)2]
ΔTdec (increase in decomposition temperature relative to HCl starting material) [1]: +45.1 °C | Tdec (decomposition temperature) [1, 11]: 259.0 °C | Improvement of shelf life over standard formulation in syrup and propylene glycol (4-day refrigerator shelf life) [8]: 1500 fold | Improvement of shelf life over solid phenoxybenzamine hydrochloride ([8]; 20° C., time to 5% decomposition): 7.7 fold | Shelf life (time to reach 5% decomposition) [8, 12]: 15.8 years | Appearance of crystalline domains on storage [2]: no crystalline domains appeared | Solubility evaluated by eye ([9]; 1 mM (0.34 mg/mL) in unbuffered water (pH 6.5)): completely dissolve | A268 of the filtrate relative to phenoxybenzamine hydrochloride solution [9, 13]: 5 × | A268 of the filtrate [9, 13]: 1.56 | Solubility ([3]; acetone): > 1000 µM | Solubility ([3]; phosphate buffered to pH 6.0): > 1000 µM | Solubility ([3]; tetrahydrofuran): < 1000 µM | Solubility ([3]; toluene): < 1000 µM | Solubility ([3]; water): > 1000 µM

[Cl-].[Cl-].[Zn+2] [ZnCl2, Zinc(II) chloride]
Cell count remaining in biofilm ([4]; 1.8 M in LB): 4×10^5

CC(C)(C)CC(C)(C)c1ccc(OCCOCC[N+](C)(C)Cc2ccccc2)cc1 [benzethonium chloride]
Viable dispersed cell count (conservative estimate, some exposures) ([4]; 78 mM in LB, precipitate impeded quantification): 5×10^4 cfu/mL

CC(COc1ccccc1)N(CCCl)Cc1ccccc1 (stereo not shown) [phenoxybenzamine hydrochloride, reference compound]
Thermal decomposition, % of the starting mass lost [10]: 38% | Shelf life (5% decay) [8, 12]: 750 days | Shelf life (time to reach 5% decomposition) [8, 12]: 2.05 years | A268 of the filtrate [9, 13]: 0.30

Ethambutol-(HCl)2—(ZnCl2)2
Tdec (decomposition temperature) [1, 11]: 216.5 °C | Appearance of crystalline domains on storage [2]: no crystalline domains appeared

Procainamide-HCl—(ZnCl2)2
Appearance of crystalline domains on storage [2]: no crystalline domains appeared
